Measurements reported in US20050036993A1, “Immune activation by double-stranded polynucleotides” (priority 1998, published 2005).

Columns and labels:
herpes simplex = conditions: cited from earlier work
vaccinia viruses = conditions: cited from earlier work
[1] = tested on: MHC Class I, TAP-1, LMP2, MHC Class II, invariant chain, HLA-DM, 90K tumor-associated immunostimulator; assay: Drug suppression of ds polynucleotide-induced MHC and antigen-presenting gene expression in FRTL-5 cells (Northern); type: cell-based, rat; conditions: for ability of dsDNA to increase MHC Class I, TAP-1, LMP2, MHC Class II, invariant chain, HLA-DM, and 90K gene expression / ability of dsRNA to increase MHC Class I, TAP-1, LMP2, MHC Class II, invariant chain, HLA-DM, and 90K gene expression: FRTL-5 cells with TSH (6H5) or without TSH (5H5), 48 hours pretreatment, compound 10 0.5 mM, MMI 5 mM; for ability of dsDNA to increase MHC Class I, TAP-1, LMP2, MHC Class II, invariant chain, HLA-DM, and 90K gene expression: 2-mercaptoimidazole 5 mM, 5 ug dsDNA; for ability of dsRNA to increase MHC Class I, TAP-1, LMP2, MHC Class II, invariant chain, HLA-DM, and 90K gene expression: 5 ug dsRNA; for dsDNA or dsRNA transfection efficiency: FRTL-5 cells, drug-treated
[2] = tested on: MHC Class I and Class II gene expression; conditions: cited from earlier work
HUVEC cells = assay: Drug suppression of ds DNA or RNA effect in endothelia (HUVEC) cells; type: cell-based, human
Excerpt: (§1) In this experiment (FIG. 6), cells were pretreated with MMI and compound 10 for 2 days before tranfection. […] The effect was therefore not thyroid cell restricted.

mouse dendritic cells = assay: Drug suppression of ds DNA or RNA effect in mouse dendritic cells; type: cell-based
Excerpt: as §1

human fibroblasts = assay: Drug suppression of ds DNA or RNA effect in human fibroblasts; type: cell-based
Excerpt: as §1

FRTL-5 rat thyroid cells = assay: DNA staining and cell cycle analysis (FACS) of FRTL-5 cells; type: cell-based; conditions: for cell cycle arrest: 5H medium 6 days then 6H medium (TSH 1×10^−10M), 5 mM methimazole or 0.5 mM compound 10; for percentage of cells in S + G2/M phase: Methimazole 5 mM, Compound 10 0.5 mM; for action of the ds nucleic acids on cell cycle progression: Table 2 experiment, 4H medium; for effect of ds nucleic acids on growth: summary statement
Description: Cells were diploid and between their 5th and 25th passage. Fresh medium was added every 2 or 3 days and cells were passaged every 7-10 days. In some experiments, as noted, cells were grown to near confluency in 6H medium then maintained in 5H medium (which contains no TSH) or 4H medium (with no TSH and no insulin) for 6-8 days before experiments were initiated. Treatment with 5H or 4H medium synchronizes the cells by piling them up in G0/G1 (A. Hirai, et al., J. Biol. Chem. 272: 13-16 (1997); Y. Noguchi, et al., J. Biol. Chem. 273: 3649-3653 (1998)).
DNA Staining and Cell Cycle Analysis—The procedure used was a modification of that described (P. Smerdely, et al., Endocrinology 133: 2403-2406 (1993)). It used the Cycle TEST PLUS DNA Reagent Kit (Becton Dickinson, San Jose, Calif.); and FACS analysis was performed according to the manufacturer's instructions. Briefly, 5×10^5 cells were incubated with 250 T1 of Solution A (trypsin buffer) for 10 min at room temperature, then 200 T1 of Solution B (trypsin inhibitor and ribonuclease A buffer) was added and further incubated for 10 min. Cold Solution C (propidium iodide stain solution) was added and incubated for 10 min at 4° C. in the dark. FACS analysis was performed using FACScan (Becton Dickinson, San Jose, Calif.). Each analysis was performed in triplicate on cells from 3 different plates; the histogram had at least 10,000 events and a coefficient of variation less than 5%.
In the experiment above, there was a minimal direct methimazole effect on the cell cycle because the cells were maintained in 4H medium without insulin; methimazole action requires insulin (O. Isozaki, et al., Mol. Endocrinol, 3: 1681-1692 (1989); O. Isozaki, et al., Endocrinology 128: 3113-3121 (1991)). […] In this experiment, FRTL-5 cells were grown to near confluency in 6H medium, then shifted to 5H medium without TSH for 6 days. The experiments were initiated by returning the cells to 6H medium to reinitiate the cell cycle. Cells were treated with 5 mM methimazole and transfected or not with dsDNA or dsRNA. After 36 hours they were subjected to cell cycle analysis. […] In this experiment, FRTL-5 cells were grown to near confluency in 6H medium, then shifted to 5H medium without TSH for 6 days. The experiments were initiated by returning the cells to 6H medium to reinitiate the cell cycle. Cells were treated with 0.5 mM 5-phenylmethimazole (compound 10) and transfected or not with dsDNA or dsRNA. After 36 hours they were subjected to cell cycle analysis.

female NOD mice = conditions: cited from earlier work
female (NZBxNZW)F1 mice = conditions: cited from earlier work
[3] = Control (no ds nucleic acid), FRTL-5 cells 6 days in 4 H medium without insulin or TSH
[4] = transfected with dsDNA, FRTL-5 cells 6 days in 4 H medium
[5] = transfected with dsRNA, FRTL-5 cells 6 days in 4 H medium

Molecule | ability of dsDNA to increase MHC Class I, TAP-1, LMP2, MHC Class II, invariant chain, HLA-DM, and 90K gene expression [1] | activity as antimmune drug [2] | dsDNA or dsRNA transfection efficiency [1] | cell cycle arrest (FRTL-5 rat thyroid cells; 36 hours) | percentage of cells in S + G2/M phase (FRTL-5 rat thyroid cells; [3]) [%] | action of the ds nucleic acids on cell cycle progression (FRTL-5 rat thyroid cells) | effect of ds nucleic acids on growth (FRTL-5 rat thyroid cells) | percentage of cells in S + G2/M phase (FRTL-5 rat thyroid cells; [4]) [%] | percentage of cells in S + G2/M phase (FRTL-5 rat thyroid cells; [5]) [%] | further results
1,3-dimethyl-4-phenylimidazoline-2-thione |  |  |  |  |  |  |  |  |  | antiviral properties (herpes simplex): antiviral properties; antiviral properties (vaccinia viruses): antiviral properties
Sc1ncc[nH]1 [2-mercaptoimidazole, reference compound] | no effect | inactive |  |  |  |  |  |  |  | 
Cn1c(-c2ccccc2)c[nH]c1=S [Compound 10, 5-phenylmethimazole] | significantly decreases | most active | does not affect | no such effect | 10.5 | inhibit | does not | 11.0 | 4.5 | ability of dsDNA to increase MHC Class I, TAP-1, LMP2, MHC Class II, invariant chain, HLA-DM, and 90K gene expression ([1]; listed as compound 10): better than 5 mM MMI; ability of dsRNA to increase MHC Class I, TAP-1, LMP2, MHC Class II, invariant chain, HLA-DM, and 90K gene expression [1]: decreases; ability of dsRNA to increase MHC Class I, TAP-1, LMP2, MHC Class II, invariant chain, HLA-DM, and 90K gene expression ([1]; listed as compound 10): better than MMI; expression of MHC and antigen-presenting genes, coincident transfection and treatment ([1]; no pretreatment): resulted in suppression; effect on cells transfected with double strand DNA or RNA (HUVEC cells): similarly effective; effect on cells transfected with double strand DNA or RNA (mouse dendritic cells): similarly effective; effect on cells transfected with double strand DNA or RNA (human fibroblasts): similarly effective; effect on ds nucleic acid effects on cell cycle (FRTL-5 rat thyroid cells; 5H then 6H medium, 0.5 mM compound 10, 36 hours): no effect; development of Diabetes (female NOD mice): suppress the development; development of systemic lupus erythematosus (SLE) (female (NZBxNZW)F1 mice): suppress the development; potency relative to MMI [2]: 10- to 100 fold
Cn1cc[nH]c1=S [Methimazole, methimazole, reference compound] | INHIBIT |  | does not affect | arrest in the G2/M1 phase | 6.3 | inhibit | counteracts | 11.4 | 7.4 | 
